{"source": "the supplement of paper PMC10307832", "assay_in_all_cases": "relative viability (nuclei count vs DMSO), 5 days (fraction); higher = more cells survive", "key": {"[1]": {"tested_on": "NCI-H1395", "how_it_was_run": "(§1)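 Relative viability is defined as nuclei in treated wells over nuclei in vehicle wells. Duplicate plates were run and medians reported. Lung cancer cell lines in 1536-well plates were dosed by pin tool one day after seeding, with one drug or with a fixed anchor-drug dose plus five library-drug doses (not always all listed) in √10 steps, and nuclei were counted after 5 days.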"}, "[2]": {"tested_on": "PC-14", "how_it_was_run": "as §1"}, "[3]": {"tested_on": "NCI-H441", "how_it_was_run": "as §1"}, "[4]": {"tested_on": "NCI-H1975", "how_it_was_run": "as §1"}, "[5]": {"tested_on": "A-427", "how_it_was_run": "as §1"}, "[6]": {"tested_on": "NCI-H520", "how_it_was_run": "as §1"}, "[7]": {"tested_on": "NCI-H838", "how_it_was_run": "as §1"}, "[8]": {"tested_on": "LXF-289", "how_it_was_run": "as §1"}, "[9]": {"tested_on": "RERF-LC-KJ", "how_it_was_run": "as §1"}, "[10]": {"tested_on": "HCC-44", "how_it_was_run": "as §1"}, "[11]": {"tested_on": "H3255", "how_it_was_run": "as §1"}, "[12]": {"tested_on": "NCI-H2405", "how_it_was_run": "as §1"}, "[13]": {"tested_on": "SK-MES-1", "how_it_was_run": "as §1"}, "[14]": {"tested_on": "NCI-H2170", "how_it_was_run": "as §1"}, "[15]": {"tested_on": "NCI-H2347", "how_it_was_run": "as §1"}, "[16]": {"tested_on": "HCC-366", "how_it_was_run": "as §1"}, "[17]": {"tested_on": "HARA", "how_it_was_run": "as §1"}, "[18]": {"tested_on": "NCI-H1915", "how_it_was_run": "as §1"}, "[19]": {"tested_on": "LCLC-97TM1", "how_it_was_run": "as §1"}, "[20]": {"tested_on": "NCI-H1755", "how_it_was_run": "as §1"}, "[21]": {"tested_on": "NCI-H3122", "how_it_was_run": "as §1"}, "[22]": {"tested_on": "NCI-H1993", "how_it_was_run": "as §1"}}, "data": [{"smiles": "C=C1C(=O)O[C@@H](CCCCCCCC)[C@@H]1C(=O)O", "note": "[C-75] + Nc1ncn([C@H]2C[C@H](O)[C@@H](CO)O2)c(=O)n1 [Decitabine] (partner 2 µM)", "values": [{"measurement": "relative viability", "setting": "[1]; first compound 0.08 µM", "result": 0.74}, {"measurement": "relative viability", "setting": "[1]; first compound 0.253 µM", "result": 0.674}, {"measurement": "relative viability", "setting": "[1]; first compound 2.53 µM", "result": 0.667}, {"measurement": "relative viability", "setting": "[1]; first compound 8 µM", "result": 0.69}, {"measurement": "relative viability", "setting": "[2]; first compound 0.08 µM", "result": 0.226}, {"measurement": "relative viability", "setting": "[2]; first compound 0.253 µM", "result": 0.233}, {"measurement": "relative viability", "setting": "[2]; first compound 0.8 µM", "result": 0.216}, {"measurement": "relative viability", "setting": "[2]; first compound 2.53 µM", "result": 0.191}, {"measurement": "relative viability", "setting": "[2]; first compound 8 µM", "result": 0.168}, {"measurement": "relative viability", "setting": "[3]; first compound 0.08 µM", "result": 0.299}, {"measurement": "relative viability", "setting": "[3]; first compound 0.253 µM", "result": 0.23}, {"measurement": "relative viability", "setting": "[3]; first compound 0.8 µM", "result": 0.287}, {"measurement": "relative viability", "setting": "[3]; first compound 8 µM", "result": 0.212}, {"measurement": "relative viability", "setting": "[4]; first compound 0.08 µM", "result": 0.373}, {"measurement": "relative viability", "setting": "[4]; first compound 0.253 µM", "result": 0.334}, {"measurement": "relative viability", "setting": "[4]; first compound 0.8 µM", "result": 0.32}, {"measurement": "relative viability", "setting": "[4]; first compound 2.53 µM", "result": 0.299}, {"measurement": "relative viability", "setting": "[4]; first compound 8 µM", "result": 0.431}, {"measurement": "relative viability", "setting": "[5]; first compound 0.08 µM", "result": 0.607}, {"measurement": "relative viability", "setting": "[5]; first compound 0.253 µM", "result": 0.533}, {"measurement": "relative viability", "setting": "[5]; first compound 0.8 µM", "result": 0.487}, {"measurement": "relative viability", "setting": "[5]; first compound 2.53 µM", "result": 0.428}, {"measurement": "relative viability", "setting": "[5]; first compound 8 µM", "result": 0.512}, {"measurement": "relative viability", "setting": "[6]; first compound 0.08 µM", "result": 0.488}, {"measurement": "relative viability", "setting": "[6]; first compound 0.253 µM", "result": 0.522}, {"measurement": "relative viability", "setting": "[6]; first compound 0.8 µM", "result": 0.498}, {"measurement": "relative viability", "setting": "[6]; first compound 2.53 µM", "result": 0.456}, {"measurement": "relative viability", "setting": "[6]; first compound 8 µM", "result": 0.356}, {"measurement": "relative viability", "setting": "[7]; first compound 0.08 µM", "result": 0.445}, {"measurement": "relative viability", "setting": "[7]; first compound 0.253 µM", "result": 0.45}, {"measurement": "relative viability", "setting": "[7]; first compound 0.8 µM", "result": 0.434}, {"measurement": "relative viability", "setting": "[7]; first compound 2.53 µM", "result": 0.369}, {"measurement": "relative viability", "setting": "[7]; first compound 8 µM", "result": 0.372}, {"measurement": "relative viability", "setting": "[8]; first compound 0.08 µM", "result": 0.361}, {"measurement": "relative viability", "setting": "[8]; first compound 0.253 µM", "result": 0.396}, {"measurement": "relative viability", "setting": "[8]; first compound 0.8 µM", "result": 0.317}, {"measurement": "relative viability", "setting": "[8]; first compound 2.53 µM", "result": 0.3}, {"measurement": "relative viability", "setting": "[8]; first compound 8 µM", "result": 0.399}, {"measurement": "relative viability", "setting": "[9]; first compound 0.08 µM", "result": 0.682}, {"measurement": "relative viability", "setting": "[9]; first compound 0.253 µM", "result": 0.848}, {"measurement": "relative viability", "setting": "[9]; first compound 0.8 µM", "result": 0.613}, {"measurement": "relative viability", "setting": "[9]; first compound 2.53 µM", "result": 0.568}, {"measurement": "relative viability", "setting": "[9]; first compound 8 µM", "result": 0.605}, {"measurement": "relative viability", "setting": "[10]; first compound 0.08 µM", "result": 1.02}, {"measurement": "relative viability", "setting": "[10]; first compound 0.253 µM", "result": 0.922}, {"measurement": "relative viability", "setting": "[10]; first compound 0.8 µM", "result": 0.946}, {"measurement": "relative viability", "setting": "[10]; first compound 2.53 µM", "result": 0.8}, {"measurement": "relative viability", "setting": "[10]; first compound 8 µM", "result": 0.903}, {"measurement": "relative viability", "setting": "[11]; first compound 0.08 µM", "result": 0.535}, {"measurement": "relative viability", "setting": "[11]; first compound 0.253 µM", "result": 0.599}, {"measurement": "relative viability", "setting": "[11]; first compound 0.8 µM", "result": 0.74}, {"measurement": "relative viability", "setting": "[11]; first compound 2.53 µM", "result": 0.585}, {"measurement": "relative viability", "setting": "[11]; first compound 8 µM", "result": 0.652}, {"measurement": "relative viability", "setting": "[12]; first compound 0.08 µM", "result": 0.807}, {"measurement": "relative viability", "setting": "[12]; first compound 0.253 µM", "result": 0.423}, {"measurement": "relative viability", "setting": "[12]; first compound 0.8 µM", "result": 0.714}, {"measurement": "relative viability", "setting": "[12]; first compound 2.53 µM", "result": 0.681}, {"measurement": "relative viability", "setting": "[12]; first compound 8 µM", "result": 0.789}, {"measurement": "relative viability", "setting": "[13]; first compound 0.08 µM", "result": 0.439}, {"measurement": "relative viability", "setting": "[13]; first compound 0.253 µM", "result": 0.367}, {"measurement": "relative viability", "setting": "[13]; first compound 0.8 µM", "result": 0.368}, {"measurement": "relative viability", "setting": "[13]; first compound 2.53 µM", "result": 0.412}, {"measurement": "relative viability", "setting": "[13]; first compound 8 µM", "result": 0.311}, {"measurement": "relative viability", "setting": "[14]; first compound 0.08 µM", "result": 0.479}, {"measurement": "relative viability", "setting": "[14]; first compound 0.253 µM", "result": 0.505}, {"measurement": "relative viability", "setting": "[14]; first compound 0.8 µM", "result": 0.449}, {"measurement": "relative viability", "setting": "[14]; first compound 2.53 µM", "result": 0.422}, {"measurement": "relative viability", "setting": "[14]; first compound 8 µM", "result": 0.401}, {"measurement": "relative viability", "setting": "[15]; first compound 0.08 µM", "result": 0.673}, {"measurement": "relative viability", "setting": "[15]; first compound 0.253 µM", "result": 0.626}, {"measurement": "relative viability", "setting": "[15]; first compound 0.8 µM", "result": 0.653}, {"measurement": "relative viability", "setting": "[15]; first compound 2.53 µM", "result": 0.572}, {"measurement": "relative viability", "setting": "[15]; first compound 8 µM", "result": 0.659}, {"measurement": "relative viability", "setting": "[16]; first compound 0.08 µM", "result": 0.357}, {"measurement": "relative viability", "setting": "[16]; first compound 0.253 µM", "result": 0.361}, {"measurement": "relative viability", "setting": "[16]; first compound 0.8 µM", "result": 0.385}, {"measurement": "relative viability", "setting": "[16]; first compound 2.53 µM", "result": 0.344}, {"measurement": "relative viability", "setting": "[16]; first compound 8 µM", "result": 0.289}, {"measurement": "relative viability", "setting": "[17]; first compound 0.08 µM", "result": 0.538}, {"measurement": "relative viability", "setting": "[17]; first compound 0.253 µM", "result": 0.444}, {"measurement": "relative viability", "setting": "[17]; first compound 0.8 µM", "result": 0.565}, {"measurement": "relative viability", "setting": "[17]; first compound 2.53 µM", "result": 0.535}, {"measurement": "relative viability", "setting": "[17]; first compound 8 µM", "result": 0.756}, {"measurement": "relative viability", "setting": "[18]; first compound 0.08 µM", "result": 0.254}, {"measurement": "relative viability", "setting": "[18]; first compound 0.253 µM", "result": 0.24}, {"measurement": "relative viability", "setting": "[18]; first compound 0.8 µM", "result": 0.296}, {"measurement": "relative viability", "setting": "[18]; first compound 2.53 µM", "result": 0.24}, {"measurement": "relative viability", "setting": "[18]; first compound 8 µM", "result": 0.225}, {"measurement": "relative viability", "setting": "[19]; first compound 0.08 µM", "result": 0.197}, {"measurement": "relative viability", "setting": "[19]; first compound 0.253 µM", "result": 0.254}, {"measurement": "relative viability", "setting": "[19]; first compound 0.8 µM", "result": 0.206}, {"measurement": "relative viability", "setting": "[19]; first compound 2.53 µM", "result": 0.215}, {"measurement": "relative viability", "setting": "[19]; first compound 8 µM", "result": 0.233}, {"measurement": "relative viability", "setting": "[20]; first compound 0.08 µM", "result": 0.683}, {"measurement": "relative viability", "setting": "[20]; first compound 0.253 µM", "result": 0.713}, {"measurement": "relative viability", "setting": "[20]; first compound 0.8 µM", "result": 0.684}, {"measurement": "relative viability", "setting": "[20]; first compound 2.53 µM", "result": 0.646}, {"measurement": "relative viability", "setting": "[20]; first compound 8 µM", "result": 0.681}, {"measurement": "relative viability", "setting": "[21]; first compound 0.08 µM", "result": 0.423}, {"measurement": "relative viability", "setting": "[21]; first compound 0.253 µM", "result": 0.486}, {"measurement": "relative viability", "setting": "[21]; first compound 0.8 µM", "result": 0.355}, {"measurement": "relative viability", "setting": "[21]; first compound 2.53 µM", "result": 0.346}, {"measurement": "relative viability", "setting": "[21]; first compound 8 µM", "result": 0.455}, {"measurement": "relative viability", "setting": "[22]; first compound 0.08 µM", "result": 0.695}, {"measurement": "relative viability", "setting": "[22]; first compound 0.253 µM", "result": 0.685}, {"measurement": "relative viability", "setting": "[22]; first compound 0.8 µM", "result": 0.605}, {"measurement": "relative viability", "setting": "[22]; first compound 2.53 µM", "result": 0.549}, {"measurement": "relative viability", "setting": "[22]; first compound 8 µM", "result": 0.571}]}]}
